The values that follow are results of earlier work, collected in US8883844B2, “Nitric oxide releasing amino acid ester for treatment of pulmonary hypertension and other respiratory conditions” (Nitrogenix Inc., priority 2010, dated 2014).

For series [1] the following is noted: oral; 3, 6, 9 and 12 months.
For series [2] the following is noted: open pilot study.

Where two headings read alike, the source gives them in different places.

For the compound `CC#CCC(C)[C@H](O)/C=C/[C@@H]1[C@H]2c3cccc(CCCC(=O)O)c3O[C@H]2C[C@H]1O` (mixture of isomers) [Beraprost, beraprost], the “benefit in PAH” value in series [1] is “benefit in a study in PAH at 3 and 6 months but not at 9 or 12 months”.
Regarding `COc1ccccc1Oc1c(NS(=O)(=O)c2ccc(C(C)(C)C)cc2)nc(-c2ncccn2)nc1OCCO` [bosentan], the liver toxicity result (higher dose) was “liver toxicity occurred”. Besides, the “six minute walk test” value (two placebo controlled trials, whole group, improvement greater at higher doses) is given as “improved”.
Turning to `Cc1cc2c(cc1CC(=O)c1sccc1S(=O)(=O)Nc1onc(C)c1Cl)OCO2` [sitaxsentan], in series [2], the “decrease in pulmonary vascular resistance” value was 30% and the “six minute walk test” value was “improvement”.
